Measured values from US8729033B2, “Therapeutic, dietary or cosmetic use of compounds with specific anti-apoptotic activity toward caspase-3, and compositions containing these compounds” (Giuliani S.p.A., priority 2008, dated 2014).

Molecular target: T1, caspase-3 (Homo sapiens, UniProt P42574)
T1 construct: host or cells: HFDPC-c cells (follicle dermal papilla cells)
T1 sequence (P42574 29-175 limits assumed): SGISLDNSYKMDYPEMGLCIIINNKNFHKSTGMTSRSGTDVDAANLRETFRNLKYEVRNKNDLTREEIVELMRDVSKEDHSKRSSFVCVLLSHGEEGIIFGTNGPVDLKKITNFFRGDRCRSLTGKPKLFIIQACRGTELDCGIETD
T1 sequence (P42574 176-277 limits assumed): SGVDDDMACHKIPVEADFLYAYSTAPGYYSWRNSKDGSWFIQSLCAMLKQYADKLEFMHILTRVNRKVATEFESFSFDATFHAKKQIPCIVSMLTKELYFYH
Assay: Caspase-3 activity (ApoTarget Caspase-3/CPP32 colorimetric test, DEVD-pNA) in HFDPC-c cells with Staurosporine-induced apoptosis
Type: cell-based
Conditions: for % Inhibition of caspase activity / % Caspase-3 activity: Staurosporine 1 μM, 24 h, number in label = concentration [μM] per Table A; for % Inhibition of caspase activity: ST alone = 0%; for % Caspase-3 activity: related to 100% activity for 1 μM Staurosporine
Experimental: The activity of caspase-3 has been assessed by using the colorimetric test ApoTarget™Caspase-3/CPP32 with DEVD-pNA as the substrate (BioSource International, Camarillo, Calif.). DEVD-pNA consists of a chromophore group (p-nitroanilide (p-NA) and a synthetic tetrapeptide (DEVD-Asp-Glu-Val-Asp) that represents the consensus sequence for the proteolytic cut catalyzed by caspase-3. The test was carried out by following the specifications indicated by the manufacturer in detail, using an equal amount of total protein (200 μg) for every sample.
Every sample was tested in duplicate. The activity was assessed by measuring the absorbance at 405 nm (in the graphics, ABS 405 nm) with an automatic spectrometer for 96-well plates (MPT Reader DV990 BVG) that carries out a double reading for every well.
Cellular lysis is a technique applied to extract all of the proteins in the cultured cells to be analyzed. Various lysis protocols exist: the one used in the experimental tests described here consists of the use of a highly denaturing buffer (lysis buffer, provided within the kit for the test of the caspase-3 activity). After incubation with the various active ingredients, the lysis buffer is placed onto the cell plates, a scraper is then used directly on the layer of cells to help collect the largest quantity possible. The protein extraction is then improved with incubation on ice (4° C.) for 10 minutes. The cellular debris are precipitated with centrifugation at 10,000×g for 1 minute. The lysates are retrieved and frozen at −80° C.
The activity of caspase-3 was assessed by using the colorimetric assay ApoTarget™Caspase-3/CPP32, and the concentration of the protein was assessed by using the Lowry-Ciocalteau method and a BSA standard as described above.
The incubation was also maintained for 24 hours in this case.
At the end of the incubation the plates in which the cells were cultivated were laid out on a bed of ice, washed once in cold PBS and incubated in the lysis buffer. After the lysis, the protein assay and the caspase-3 activity test was carried out.

% Inhibition of caspase activity [%]	% Inhibition of caspase activity (listed as R20) [%]	% Caspase-3 activity [%]	% Caspase-3 activity (listed as R20) [%]	% Inhibition of caspase activity (listed as Z4) [%]	% Caspase-3 activity (listed as Z4) [%]	Compound	induction of apoptosis (caspase-3 activity) (1 μM, 24-hour incubation, FIG. 1)
32.10	46.27	67.90	53.73	–	–	C[C@@H]1O[C@@H](OC[C@H]2O[C@@H](Oc3c(-c4ccc(O)c(O)c4)oc4cc(O)cc(O)c4c3=O)[C@H](O)[C@@H](O)[C@@H]2O)[C@H](O)[C@H](O)[C@H]1O [Example R2, Rutin]	–
21.64	–	78.36	–	–	–	Cl.Cl.Cl.NCCCCNCCCN [Example S0.1, Spermidine trihydrochloride]	–
29.00	–	71.00	–	13.20	86.80	CC1=C(/C=C/C(C)=C/C=C/C(C)=C/C=C/C=C(C)/C=C/C=C(C)/C=C/C2=C(C)C[C@@H](O)CC2(C)C)C(C)(C)C[C@H](O)C1 [Example Z0.4, Zeaxanthin]	–
–	–	–	–	–	–	CN[C@@H]1C[C@H]2O[C@@](C)([C@@H]1OC)n1c3ccccc3c3c4c(c5c6ccccc6n2c5c31)C(=O)NC4 [Staurosporine, reference compound]	increase in caspase-3 activity
